Measured values: US8536202B2, “Triazole-substituted anthranilamides as pesticides” (Bayer Cropscience AG, priority 2010, dated 2013)
Like-named read-outs stand apart in the source and are kept apart here.

Key:
[1] = test system: green peach aphid (Myzus persicae); experiment: Myzus test (MYZUPE spray treatment), Use Example 4; assay type: in vivo; conditions: 144 h, after 6 days; for pest or weed control at 100 g/ha: read-out: activity in %
Procedure: Solvents: 78 parts by weight of acetone • • 1.5 parts by weight of dimethylformamide
Emulsifier: 0.5 part by weight of alkylaryl polyglycol ether
An appropriate preparation of active compound is prepared by mixing 1 part by weight of active compound with the stated amounts of solvents and emulsifier and diluting the concentrate with emulsifier-containing water to the desired concentration.
Leaf discs of Chinese cabbage (Brassica pekinensis) infested by all stages of the green peach aphid (Myzus persicae) are sprayed with a preparation of active compound at the desired concentration.
After 6 days, the activity in % is ascertained. Here, 100% means that all of the aphids have been killed; 0% means that no aphids have been killed.

[2] = test system: larvae of the mustard beetle (Phaedon cochleariae); experiment: Phaedon test (PHAECO spray treatment); assay type: in vivo; conditions: 168 h, 100 g/ha, after 7 days, read-out: activity in %
Procedure, shortened: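 Compound dissolved in acetone/dimethylformamide with alkylaryl polyglycol ether emulsifier, then diluted with emulsifier-containing water to test concentration for spray treatment of Phaedon cochleariae larvae. Activity scored after 7 days as % larvae killed (100% = all dead, 0% = none).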

[3] = test system: caterpillars of the armyworm (Spodoptera frugiperda); experiment: Spodoptera frugiperda test (SPODFR spray treatment); assay type: in vivo; conditions: 168 h, after 7 days; for pest or weed control at 100 g/ha: read-out: activity in %
Procedure, shortened: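 Maize leaf discs sprayed with compound diluted in emulsifier-containing water (acetone/DMF solvent, alkylaryl polyglycol ether emulsifier), dried, then infested with armyworm caterpillars. Kill scored after 7 days as % mortality, 100% = all caterpillars dead, 0% = none.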

[4] = log P determination by HPLC on reversed-phase columns (EEC Directive 79/831 Annex V.A8); assay type: physicochemical; conditions: pH 2.7
Procedure, shortened: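 log P from reversed-phase LC-MS retention at pH 2.7, 0.1% formic acid water/acetonitrile gradient 10–95% acetonitrile. Calibrated against C3–C16 unbranched alkan-2-ones, interpolating linearly between adjacent alkanones.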

[5] = reversed-phase C18 HPLC column, HPLC on reversed-phase columns (C 18), EEC Directive 79/831 Annex V.A8, read-out: logP

chromatographic logP [4, 5] | Compound | pest or weed control at 100 g/ha [1] [%] | pest or weed control at 100 g/ha [2] [%] | pest or weed control at 100 g/ha [3] [%] | chromatographic logP [4] | pest or weed control at 20 g/ha ([3]; 20 g/ha) [%] | pest or weed control at 20 g/ha ([1]; 20 g/ha) [%]
3.08 | CNC(=O)c1cc(Cl)cc(C)c1NC(=O)c1cc(Cn2cc(C(F)(F)F)nn2)nn1-c1ccccc1Cl [Example 291] | 80 | 100 | 100 | – | – | –
– | Cc1cc(Cl)cc(C(N)=O)c1NC(=O)c1cc(Cn2cc(C(F)(F)F)nn2)nn1-c1ncccc1Cl [Example 192] | 100 | 100 | 100 | 2.44 | – | –
– | Cc1cc(C#N)cc(C(=O)NC(C)C)c1NC(=O)c1cc(Cn2ncc(C(F)(F)C(F)(F)F)n2)nn1-c1ncccc1Cl [Example 364] | 100 | 100 | 100 | 3.52 | – | –
– | CCNC(=O)c1cc(C#N)cc(C)c1NC(=O)c1cc(Cn2cc(C(F)(F)C(F)(F)F)nn2)nn1-c1ncccc1Cl [Example 319] | 100 | 100 | 100 | 2.89 | – | –
– | Cc1cc(C#N)cc(C(N)=O)c1NC(=O)c1cc(Cn2cc(C(F)(C(F)(F)F)C(F)(F)F)nn2)nn1-c1ncccc1Cl [Example 223] | 100 | 100 | – | 2.84 | 100 | –
2.88 | CCNC(=O)c1cc(C#N)cc(C)c1NC(=O)c1cc(Cn2cc(C(F)(F)F)nn2)nn1-c1ncccc1Br [Example 8] | 80 | 100 | 100 | – | – | –
– | CNC(=O)c1cc(Cl)cc(C)c1NC(=O)c1cc(Cn2ncc(C3CC3)n2)nn1-c1ncccc1Cl [Example 21] | 100 | 100 | 100 | 2.85 | – | –
– | Cc1cc(I)cc(C(N)=O)c1NC(=O)c1cc(Cn2nc(C(F)(F)F)c(C(F)(F)F)n2)nn1-c1ncccc1Cl [Example 402] | 80 | 100 | 100 | 3.67 | – | –
– | CSC[C@H](C)NC(=O)c1cc(I)cc(C)c1NC(=O)c1cc(Cn2ncc(C(F)(F)F)n2)nn1-c1ncccc1Cl [Example 166] | 100 | 100 | 100 | 3.98 | – | –
– | CC(C)NC(=O)c1cc(Cl)cc(Cl)c1NC(=O)c1cc(Cn2ncc(C(F)(F)F)n2)nn1-c1ncccc1Cl [Example 150] | 90 | 100 | 100 | 3.41 | – | –
– | Cc1cc(C#N)cc(C(N)=O)c1NC(=O)c1cc(Cn2cc(C(F)(F)F)nn2)nn1-c1ncccc1Cl [Example 184] | – | 100 | 100 | 2.12 | – | 100
– | Cc1cc(Cl)cc(C(=O)NC2CC2)c1NC(=O)c1cc(Cn2ncc(C(F)(F)C(F)(F)F)n2)nn1-c1ncccc1Cl [Example 362] | 80 | 100 | 100 | 3.62 | – | –
– | Cc1cc(Cl)cc(C(=O)NC2CC2)c1NC(=O)c1cc(Cn2nccn2)nn1-c1ncccc1Cl [Example 120] | 90 | 100 | 100 | 2.26 | – | –
– | Cc1cc(Cl)cc(C(=O)NC(C)C)c1NC(=O)c1cc(Cn2ncc(C(F)(F)F)n2)nn1-c1ncccc1Cl [Example 139] | 90 | 100 | 100 | 3.48 | – | –
